Measured values published in patent US7910111B2, “Inhibitors of N-ethylmaleimide sensitive factor” (The Johns Hopkins University, priority 2003, dated 2011).

How the values were obtained:
recombinant NSF [1] = molecular target: T1, recombinant NSF (Cricetulus griseus, UniProt P18708); experiment: NSF ATPase assay (coupled colorimetric assay); format: biochemical; conditions: recombinant NSF
T1 construct: RGS-(His)6 (N); made in house; host or cells: bacteria
Description: The effect of NO upon NSF activity was next explored, since NO inhibits Weibel-Palade body exocytosis, and since NSF regulates Weibel-Palade body exocytosis. The effect of NO upon the ATPase activity of NSF was first examined. DEA-NONOate was added to recombinant NSF, and the ATPase activity of NSF was measured.
(§1) The ATPase activity of NSF was measured by a coupled assay, in which ATP utilization is linked to the pyruvate kinase reaction, which generates pyruvate, which in turn is measured continuously with lactate dehydrogenase (Huang and Hackney, 1994). Recombinant NSF (0.2 μg/μl) was pre-treated with buffer or DEA or DEA-NONOate or NEM for 10 min at 22° C. ATPase reaction buffer (100 mM HEPES buffer, pH 7.0, 100 mM KCl, 10 mM MgCl2, 5 mM CaCl2, 10 mM ATP, 5 mM phosphoenol pyruvate, 50 U lactate dehydrogenase, and 50 U pyruvate kinase) was added to the mixture, followed by 10 μl of NADH (2 mg/ml in 1% sodium bicarbonate). The mixture was incubated for 10 min at 22° C., and the absorbance was measured at 340 nm.
The effect of the TAT-NSF peptide inhibitors upon the ability of NSF to hydrolyze ATP was measured. 10 μM TAT-NSF peptides was added to recombinant NSF, and the hydrolysis of ATP was measured. All 5 TAT-NSF peptides inhibited NSF ATPase activity (FIG. 8A). […] The effects of TAT-NSF81 (SEQ ID NO: 6) upon NSF were further defined. TAT-NSF81 (SEQ ID NO: 6) inhibits NSF ATPase activity in a dose-dependent manner with an IC50% between 1-10 μM (FIG. 8B).
as §1, with “TAT-NSF peptides” for “DEA or DEA-NONOate or NEM”

[2] = molecular target: T2, NSF disassembly of the SNARE complex (Cricetulus griseus, UniProt P18708); format: biochemical; conditions: ATP
T2 construct: made in house; host or cells: bacteria (NSF, alpha-SNAP); BL21 cells (GST-SNAREs)
Description: Accordingly, recombinant NSF was pre-treated with the NO donor DEA-NONOate 1 mM for 10 min. Pre-treated NSF, α-SNAP, and detergent extracts of HAEC membranes were then mixed in the presence of 0.5 mM ATP or ATP-γS. These reactions were then fractionated by sucrose density gradient ultracentrifugation, fractions were collected from the bottom of the tube, and immunoblotted with antibody to syntaxin-4.
The effect of NO upon NSF disassembly of purified, recombinant SNARE molecules was next examined. Recombinant (His)6-NSF was pre-treated or not with 1 mM DEA-NONOate for 10 min, and then mixed with and (His)6-a-SNAP and recombinant SNARE fusion polypeptides identified in endothelial cells: GST-syntaxin-4, VAMP-3, and SNAP-23. ATP or ATP-γS was added, the mixture was precipitated with glutathione-sepharose beads, and precipitated proteins were fractionated by SDS-PAGE and immunoblotted with antibody to the NSF tag.
The disassembly activity of NSF was measured by a co-precipitation assay (Pevsner et al., 1994). […] This mixture of NSF and SNARE polypeptides was then incubated in binding buffer (4 mM HEPES pH 7.4, 0.1M NaCl, 1 mM EDTA, 3.5 mM CaCl2, 3.5 mM MgCl2, and 0.5% Nonidet P-40) and glutathione-sepharose beads for 1 h at 4° C. with rotation. The beads were washed with binding buffer 4 times, mixed with SDS-PAGE sample buffer, boiled for 3 min, and analyzed by immunoblotting.
The effect of the TAT-NSF peptide inhibitors upon the ability of NSF to separate from SNARE complexes was measured. Recombinant NSF was pre-treated with 1 μM TAT-NSF peptides, and recombinant GST-SNARE polypeptides were then added, including syntaxin-4, SNAP-23, and VAMP-3. […]
The effect of TAT-NSF peptides on NSF disassembly activity was determined. […]
TAT-NSF81 (SEQ ID NO: 6) inhibition of NSF disassembly activity was also investigated. […] ATP was added, GST-SNAREs were precipitated with glutathione-sepharose, and the precipitant was analyzed for the co-precipitation of NSF.
The disassembly activity of NSF was measured by a co-precipitation assay (Pevsner et al., 1994). […]

recombinant NSF [3] = molecular target: T1, recombinant NSF; experiment: S-nitrosylation of recombinant NSF (Saville reaction); format: biochemical; conditions: 1 mM DEA-NONOate
Description: The number of cysteine residues that are nitrosylated by exogenous NO was next measured. Recombinant NSF was exposed to increasing amounts of DEA-NONOate, and then the Saville reaction was used to measure the number of nitrosocysteine residues per molecule of NSF. NO nitrosylates NSF in a dose-dependent manner (FIG. 4C). At 1 mM DEA-NONOate, approximately 3 cysteine residues are modified by NO per each molecule of NSF.
Measurement of cysteine residues nitrosylated in vitro was performed by the Saville and Griess assays (Saura et al., 1999). Measurement of NSF nitrosylated in cultured cells was performed by immunoprecipitation with antibody to nitrosocysteine, followed by immunoblotting with antibody to NSF. Measurement of cysteine residues nitrosylated in vivo was performed as previously (Jaffrey et al., 2001; Jaffrey and Snyder, 2001).

[4] = system: human aortic endothelial cells (HAEC); conditions: HAEC pre-treated with increasing amounts; DEA-NONOate 10 min, DETA-NONOate 16 h, SNAP 6 h, NEM 1 h, L-NAME 16 h
Description: To explore the effect of NO upon granule exocytosis, thrombin induced exocytosis of Weibel-Palade bodies from human aortic endothelial cells (HAEC) which release von Willebrand's Factor (vWF) was studied. HAEC was pre-treated with an NO donor 2-(N,N-diethylamino)-diazenolate-2-oxide (DEA-NONOate) 10 mM or with DEA as a control, stimulated the cells with thrombin 1 U/ml for 1 h, and the amount of vWF released into the media was then measured. […] HAEC was then pre-treated with increasing amounts of various NO donors, including a rapidly releasing NO donor DEA-NONOate for 10 min, a slowly releasing NO donor DETA-NONOate for 16 h, or a nitrosothiol S-nitroso-penicillamine (SNAP) for 6 h; alternatively, cells were treated with NEM for 1 h.
The role of endogenous NO in the regulation of Weibel-Palade body exocytosis was then explored. HAEC was pre-treated with L-NAME for 16 h in order to inhibit endogenous NOS, and then the cells were stimulated with 1 U/ml thrombin for 1 h and vWF release was measured. […] HAEC was next pre-treated with vascular endothelial growth factor (VEGF) in order to activate endogenous NOS3. Cells were incubated with 50 ng/ml VEGF or control for 2 h, and then stimulated with thrombin.
A peptide inhibitor of NSF that crosses cell membranes was designed. This peptide, designated TAT-NSF222, includes the protein transduction domain of HIV TAT (residues 47-57) previously shown to transduce polypeptides into cells (Becker-Hapak et al., 2001), fused to a fragment of NSF (residues 222-243) previously shown to inhibit NSF (Schweizer et al., 1998). […] HAEC were then incubated for 20 min with TAT-NSF222, or with a control peptide TAT-NSF222scr that consisted of the intact TAT domain followed by the amino acid residues of NSF 222-243 in a scrambled order. HAEC were transduced with TAT-NSF peptides, treated with media or thrombin, and the amount of vWF released into the media was measured by ELISA.
Since NSF plays a general role in vesicle trafficking, permanent inactivation of NSF would slow vesicular trafficking in general. However, local production of NO at the plasma membrane and reversible nitrosylation of NSF could provide spatial regulation of NSF.
Human aortic endothelial cells (HAEC) and EGM-2 media were obtained from Clonetics (Walkersville, Md.). HAEC were pre-treated with NO donors, washed, stimulated with 1 U/mil of thrombin, and the amount of vWF released into the media was measured by an ELISA (American Diagnostica, Greenwich, Conn.). HAEC were permeabilized by incubation with 10 U/well of SLO (Sigma) in PBS pH 7.4 for 15 min at 37° C. (Walev et al., 2001). Some cells were incubated with 20-200 μg/ml of antibodies or with 100 μg/ml of recombinant NSF. Cells were then resealed by incubation with EGM-2 media for 4 h at 37° C., washed with EGM-2 media, and stimulated with thrombin as above.
The ability of TAT-NSF to affect exocytosis from cells was investigated. Endothelial cells release vWF by exocytosis when stimulated by thrombin. Accordingly, endothelial cells were incubated with increasing amounts of TAT-NSF peptides for 20 min, then treated with 1 U/ml thrombin, and the amount of vWF released into the media was measured by ELISA.
Human aortic endothelial cells (HAEC) and EGM-2 media were obtained from Clonetics (Walkersville, Md.). HAEC were pre-treated with TAT-NSF peptides for 20 min, washed, stimulated with 1 U/ml of thrombin, and the amount of vWF released into the media was measured by an ELISA (American Diagnostica, Greenwich, Conn.).

T1 sequence (P18708 whole entry): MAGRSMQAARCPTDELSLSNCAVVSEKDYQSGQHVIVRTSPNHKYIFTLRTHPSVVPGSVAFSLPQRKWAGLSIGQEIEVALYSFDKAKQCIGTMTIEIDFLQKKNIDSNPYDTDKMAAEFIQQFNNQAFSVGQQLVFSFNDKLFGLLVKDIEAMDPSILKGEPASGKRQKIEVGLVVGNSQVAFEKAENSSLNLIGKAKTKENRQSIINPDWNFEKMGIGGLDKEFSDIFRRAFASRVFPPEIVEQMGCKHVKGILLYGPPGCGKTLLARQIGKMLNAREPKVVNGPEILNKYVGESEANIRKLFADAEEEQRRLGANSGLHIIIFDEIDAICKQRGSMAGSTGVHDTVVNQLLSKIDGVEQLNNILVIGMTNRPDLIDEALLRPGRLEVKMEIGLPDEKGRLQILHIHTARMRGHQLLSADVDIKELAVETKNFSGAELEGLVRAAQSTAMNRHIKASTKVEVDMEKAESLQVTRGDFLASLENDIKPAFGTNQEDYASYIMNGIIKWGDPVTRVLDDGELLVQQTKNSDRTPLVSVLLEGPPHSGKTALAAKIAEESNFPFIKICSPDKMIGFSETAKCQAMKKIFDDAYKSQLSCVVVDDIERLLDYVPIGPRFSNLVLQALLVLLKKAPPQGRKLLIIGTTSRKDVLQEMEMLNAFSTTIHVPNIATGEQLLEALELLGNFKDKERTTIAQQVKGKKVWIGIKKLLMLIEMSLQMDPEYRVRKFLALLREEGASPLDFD
T2 sequence (P18708 whole entry): as above
T2 sequence (P81125 whole entry partner): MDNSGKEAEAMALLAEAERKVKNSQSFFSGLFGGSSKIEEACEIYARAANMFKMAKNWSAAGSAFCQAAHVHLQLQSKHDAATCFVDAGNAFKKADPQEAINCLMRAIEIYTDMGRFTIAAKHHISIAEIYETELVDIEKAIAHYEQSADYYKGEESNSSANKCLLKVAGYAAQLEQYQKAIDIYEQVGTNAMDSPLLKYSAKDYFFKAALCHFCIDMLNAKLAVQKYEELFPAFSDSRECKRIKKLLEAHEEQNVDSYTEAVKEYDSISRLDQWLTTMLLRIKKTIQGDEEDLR
T2 sequence (Q12846 whole entry partner): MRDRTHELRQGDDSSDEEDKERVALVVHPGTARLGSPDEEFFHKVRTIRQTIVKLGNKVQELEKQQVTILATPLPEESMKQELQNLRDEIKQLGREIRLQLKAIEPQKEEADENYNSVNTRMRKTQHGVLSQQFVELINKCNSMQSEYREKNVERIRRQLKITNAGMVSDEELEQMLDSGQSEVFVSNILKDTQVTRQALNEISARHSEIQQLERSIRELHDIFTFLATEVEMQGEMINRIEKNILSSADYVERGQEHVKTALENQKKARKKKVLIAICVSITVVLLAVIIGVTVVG
T2 sequence (Q15836 whole entry partner): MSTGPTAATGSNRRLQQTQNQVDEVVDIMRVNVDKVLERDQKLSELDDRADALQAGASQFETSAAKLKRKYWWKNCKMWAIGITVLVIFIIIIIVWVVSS
T2 sequence (O00161 whole entry partner): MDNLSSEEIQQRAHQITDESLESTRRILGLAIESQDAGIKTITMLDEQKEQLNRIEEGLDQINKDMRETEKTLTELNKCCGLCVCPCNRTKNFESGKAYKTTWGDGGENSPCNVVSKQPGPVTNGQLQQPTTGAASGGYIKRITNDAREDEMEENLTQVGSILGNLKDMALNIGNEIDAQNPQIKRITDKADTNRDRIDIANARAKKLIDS

CCN(CC)[N+]([O-])=NO [DEA-NONOate, 2-(N,N-diethylamino)-diazenolate-2-oxide]
effect on NSF ATPase activity (recombinant NSF [1]): does not significantly inhibit NSF hydrolysis of ATP | effect on NSF disassembly of 20S SNARE complex from endothelial cell extracts ([2]; NSF pre-treated with 1 mM for 10 min, HAEC membrane extracts): inhibits the ability of NSF to disassemble a 20S SNARE complex | effect on NSF disassembly activity ([2]; recombinant NSF, α-SNAP, GST-SNAREs, TAT-NSF peptides 1 μM in Example 2): inhibits NSF disassembly activity | cysteine residues modified by NO per molecule of NSF (recombinant NSF [3]): approximately 3 | effect on thrombin induced vWF release, dose response [4]: inhibits thrombin induced vWF release
